Data set [1] in a line: 129Xe spin-lattice relaxation time (T1) of hyperpolarized xenon in solution. It is filed as physicochemical. How it is done: The design of the shaker used in the dissolution stage for xenon mixing and delivery is illustrated in FIG. 1. The shaker has a small sidearm which can be isolated from the main volume by a stopcock. The shaker is charged with a sample of either normal abundance or isotopically enriched xenon (80% ^129Xe, EG&G Mound, Miamisburg, Ohio, U.S.A.). Laser polarization is performed prior to admitting the xenon to the shaker. Briefly, approximately 5×10^−4 mol of 80. % isotopically enriched ^129Xe was optically pumped in a 30 cc cylindrical glass pumping cell (diameter≈30 mm). Before optical pumping, the cell was cleaned and coated with SURFASIL® (Pierce Chemical Co., Florence, Mass., U.S.A.); the cell was then evacuated to 10^−6 torr and loaded with one drop of melted rubidium metal in a dry nitrogen environment. Optical pumping was performed with a 1.3 W continuous-wave Ti:sapphire laser (794.7 nm) for 20-30 min, and the temperature of the cell was maintained at 60-80° C. by a temperature-controlled nitrogen gas stream. Typically, the apparatus produces xenon polarization levels in the range of 5-10%.
Following laser polarization, the polarized ^129Xe is frozen at liquid nitrogen temperatures in the sidearm in a magnetic field of approximately 50 mT provided by a small permanent magnet. The magnetic field is used in the freezing stage to prevent the decay of xenon polarization. The xenon is sublimated and then admitted into the solution. The small size of the shaker allows for the accumulation of several atmospheres of xenon pressure which aids in increasing the xenon concentration in the solution. During the dissolution procedure, the vessel is vigorously shaken to help dissolve the xenon gas. The resulting xenon solution is extracted with a syringe through a high-pressure rubber septum. In those examples below wherein a solution NMR study is performed on an in vitro sample, the xenon is immediately injected into an NMR tube which contains the sample to be studied.
Solutions of hyperpolarized ^129Xe in partially deuterated benzene (25% C6D5H, 75% C6D6) were prepared as described above for saline solutions of ^129Xe with the exception that the shaker was charged with the benzene solution rather than saline. Typically, 4×10^−4 mol of enriched ^129Xe (80%, EG&G Mound) were used in one experiment at a pressure of 1 atm. ^129Xe NMR was performed at 51 MHz on a Quest 4300 spectrometer (Nalorac Cryogenics, Martinez, Calif., U.S.A.) with a home built probe and a tipping angle of 3°. ^1H NMR was performed at 185 MHz with a home built probe and a tipping angle of 3°.
Hyperpolarized xenon and mixtures of hyperpolarized xenon and cyclodextrins were prepared generally as discussed above. SPINOE signals of 0.05 M cyclodextrin solutions in deuterated DMSO were measured as described above in Example 8.

Data set [2] relates to human blood. The data set can be described thus: 129Xe NMR relaxation and signal of xenon delivered to human blood / red blood cell sample in vitro. The format is in vitro ADME.
Protocol: The portion removed accounted for approximately 30% of the total volume of the blood sample. Following removal of a portion of the plasma, xenon saturated saline (1 mL) was injected into the red blood cell (RBC) sample (1 mL) and the ^129Xe NMR was measured. The NMR spectra were measured on a Bruker AM-400 spectrometer.
By using short rf pulses of small tipping angle, ^129Xe NMR spectra were acquired as a function of time after injection of the xenon/saline mixture into the blood. NMR spectra were measured on a Bruker AM-400 spectrometer.
A solution of hyperpolarized xenon in […] ® was prepared in the same manner as described for the saline solution of hyperpolarized xenon, however, the shaker was charged with […] ® rather than saline. […] The […] ® solution was charged with laser polarized ^129Xe and an aliquot (1 mL) of this solution was added to human blood (1 mL). The spectra were obtained on a Bruker AM-400 spectrometer.
A solution of hyperpolarized xenon in FLUOSOL® was prepared in the same manner as described for the saline solution of hyperpolarized xenon, however, the shaker was charged with FLUOSOL® rather than saline. The FLUOSOL® solution was charged with laser polarized ^129Xe and an aliquot (1 mL) of this solution was added to human blood (1 mL). The spectra were obtained on a Bruker AM-400 spectrometer.
Data set [3] has as its system red blood cell (RBC).
Protocol: NMR spectra were measured on a CMX Infinity spectrometer (Chemamagnetics-Otsuka Electronics, Fort Collins, Colo., U.S.A.) at a magnetic field of 4.3 Tesla.
The xenon exchange rate between the extracellular and intracellular compartments of a RBC/saline/plasma sample was measured by selectively inverting the xenon saline/plasma NMR line and observing the recovery of the two signals. The selective inversion was achieved by an amplitude-modulated Gaussian pulse of 1 ms duration centered at the frequency of the saline/plasma signal. […] A field gradient pulse of 1 ms was applied after the inversion pulse to dephase any components of the transverse magnetization. After the inversion pulse, xenon spectra were taken at fixed time intervals using a small tipping angle (20°). Following the addition of the xenon/saline solution into the RBC sample, a delay of 3 seconds before the application of the inversion pulse insured that the xenon/RBC system was well mixed and equilibrated.
[formula] where τRBC and τp1 are residence time constants for xenon in the RBC and saline/plasma, and 1/τ=1/τRBC+1/τp1. S^oRBC and S^op1 are the initial intensities for the RBC and the plasma/saline components, respectively, immediately after the inversion pulse. The effect of the spin-lattice relaxation is neglected since τ<<T1, making S^oRBC+S^op1 a constant during the exchange process.
The conditions of data set [4]: rat, in vivo.
Protocol: Male rats weighing 200-250 grams were anesthetized by intramuscular injection of ketamine/xylazine/acepromazine (30/3/0.6 mg/kg). Supplemental intramuscular doses were administered as needed to maintain anesthesia. A venous catheter was placed into a tail vein, and the receiver/transmitter surface coil was placed over the heart and liver (FIG. 18). Acquisitions began at start of the injection. Prior to each experiment the rat was placed in lateral recumbency into the magnet. At the conclusion of each experiment, the catheter was removed and the rat was returned to its cage to recover from anesthesia.
The ^129Xe NMR spectra were obtained on a home-built NMR spectrometer interfaced with a Bruker 2.35 T magnet (xenon frequency: 27.68 MHz, bore diameter: 25 cm). […] For the spectroscopy experiment, spectra were obtained every second (pulse angle: ≈20°).
The rats, anesthesia and apparatus were as described in Example 10, above.
The conditions of data set [5]: in saline; STP volume of xenon dissolved in 1 liter of liquid at 1 atm gas pressure; cited from earlier work.
Data set [6] has as its system red blood cell (RBC). The following applies: room temperature; Herbst et al. 1989; cited from earlier work.
[7] abbreviates: selective inversion experiment, 4.3 Tesla.

Where two headings read alike, the source gives them in different places.

In the case of `[Xe]` [xenon], in data set [1] (0.1 M p-nitrotoluene in deuterated benzene), the “129Xe T1” value is recorded as over 500 s. For the same compound, in data set [1] (0.1 M α-cyclodextrin solution in deuterated DMSO), the “129Xe T1” value came out at 20 s. In data set [1] (H2O/saline (0.9% NaCl), 9.4 T), the T1 of xenon was 66 s. Also, the “xenon T1” value in data set [1] (in INTRALIPID solution) was found to be 40 ± 3 s. In addition, in data set [1] (normal benzene, combination of gas and solution relaxation times), the “observed spin-lattice relaxation time of 129Xe in solution” value was about 200 s. For the same compound, the “observed spin-lattice relaxation time of 129Xe in solution” value in data set [1] (partially deuterated benzene (25% C6D5H, 75% C6D6)) is listed as about 1000 s. For the same compound, the T1 of xenon result in data set [1] (saline made with D2O) is on record as “≈ 1000 s”. For the same compound, the “T1 of the narrow peak” value in data set [2] (xenon/FLUOSOL solution 1 mL added to human blood 1 mL, 216 ppm RBC peak) worked out at 13 ± 1 s. Moreover, the “T1 decay time of the signal at 194 ppm” value in data set [2] (xenon/INTRALIPID solution 1 mL added to human blood 1 mL) is listed as 16 s. The “T1 decay time relative to xenon in saline water/blood mixture” value in data set [2] (xenon/INTRALIPID solution in blood, 194 ppm signal) is recorded as “approximately 3 fold”. In data set [3], the “equilibrium distribution of the integral of the two peaks (RBC vs saline/plasma)” value is “approximately 50%”; the “ratio of integrated intensities of broad (FLUOSOL) and narrow (RBC) peaks” value is “approximately 3”; the “ratio of peak of xenon in INTRALIPID solution to peak of intracellular xenon” value is listed as “approximately 6:1”. Also, in data set [3] (setting [7]), the “residence time constant in saline/plasma, τpl” value amounted to 29.1 ± 2 ms and the “residence time constant in the RBC, τRBC” value was 20.4 ± 2 ms. In addition, the “exchange time constant τ (1/τ=1/τRBC+1/τpl)” value in data set [3] (selective inversion of saline/plasma line, 4.3 Tesla) is 12.0 ± 1 ms. For the same compound, the “time of maximum xenon signal intensity after start of injection” value in data set [4] was 7 s. The Ostwald coefficient in data set [5] is 0.0926.
Regarding `O` [water], in data set [6], the “residence time constant in the RBC, τRBC” value was 12 ± 2 ms.

The values above are taken from patent US7385395B2, “Apparatus for preparing a solution of a hyperpolarized noble gas for NMR and MRI analysis” (priority 1996, dated 2008).
